In US11324858B2, “Biomaterials for enhanced implant-host integration” (Massachusetts Institute of Technology, priority 2012, dated 2022):
“Also recorded” adds a separate entry of the source.

How the values were obtained:
hepatic aggregates = assay: Diffusion of DAPI through ligated constructs after i.p. injection; assay type: in vivo, mouse; settings: post i.p. injection, EC Cord Ligated procedure
Method: FIGS. 16A-16B show the diffusion of small-molecule DAPI through ligated constructs. Constructs containing both hepatic aggregates and cords were implanted using procedures identical to those of the “EC Cord Ligated” control. Following implantation, the animals were injected i.p. with DAPI using the same volume and concentration typically used for luciferin administration. […] By 20 min post injection, DAPI-positive hepatic aggregates were identified throughout the constructs as shown by FIG. 16B.
To explore whether this vascularization strategy has potential to enable applications such as human tissue replacement or humanized mouse models, it was tested whether coimplantation of EC cords can support primary human hepatocytes. […] To test whether enhanced hepatic function in animals with EC cords was the result of direct paracrine signaling between adjacent EC cords and hepatocytes or of improved access to a blood supply, the parametrial fat pad was severed upstream of the constructs immediately after implantation to reduce blood supply (“EC Cord Ligated”; FIG. 4E). Bioluminescence imaging was performed 20 min after luciferin injection at each time point, which was confirmed to be adequate time for diffusionbased permeation of the construct in ligated control tissues by DAPI (a small molecule similar in size to luciferin; FIG. 16).

HUVECs and 10T1/2s = assay: Cord formation/contraction of HUVEC and 10T1/2 cells in collagen within PDMS microchannels, with contractility inhibitors; assay type: cell-based, human, mouse; settings: treated immediately after seeding; 20 μM blebbistatin or 25 μM Y27632
Method: To test whether patterned endothelial cell (EC) cords induce vivo vessel formation in vivo, EC cords embedded in a fibrin matrix were implanted into the intraperitoneal space of nude mice (schematic, FIG. 1A). The cords were first prepared by seeding HUVECs and 10T1/2 cells suspended within collagen pre-polymer into a PDMS template and allowed to contract and remodel the collagen over a period of 4 hours. During this maturation period, the cells contracted against the matrix and each other, which caused the cords to shrink in diameter to approximately 50% of their original size (FIG. 1B). The HUVECs and 10T1/2 cells were mobile within the cords and also underwent some sorting during this time, with many of the 10T1/2 localizing to the periphery of the cords (FIG. 1C). […] After allowing the cords to contract, they were embedded into a larger fibrin gel (FIG. 1E) and prepared for implantation by attaching the samples to a polypropylene surgical mesh. The cords were implanted adjacent to a fat pad into athymic mice and resected at various time points. Tissues resected after 7 days, sectioned and stained with H&E indicated the presence of blood in areas where EC cords were initially present (FIG. 1F).
Micropatterning of Endothelial cell cords. EC cords were micropatterned as previously described (2). […]

Compound	time to permeate construct and stain hepatic aggregates (hepatic aggregates)	cord formation / cord contraction under contractility inhibitor (HUVECs and 10T1/2s)
N=C(N)c1ccc(-c2cc3ccc(C(=N)N)cc3[nH]2)cc1 [DAPI]	≤ 20 min	
C[C@@H](N)[C@H]1CC[C@H](C(=O)Nc2ccncc2)CC1 [Y27632]		failed to form cords
Cc1ccc2c(c1)C(=O)C1(O)CCN(c3ccccc3)C1=N2 (stereo not drawn) [blebbistatin]		prevented their contraction and elongation of the cells along the collagen; also recorded: failed to form cords
